# Assay results reported in patent publication US11752117B2, “Methods and compositions for diagnosing and treating glaucoma” (priority 2017, dated 2023).
# System: glaucoma patients
# Test: Extended twice-daily 0.4% tolbutamide treatment, IOP of glaucoma patients
# Type: in vivo, human
# Protocol: FIG. 5 depicts, in accordance with embodiments herein, long-term effect of 0.4% tolbutamide treatment on IOP of a human subject. […] The bottles were color-coded and the patient was not aware of which bottle contained the drug and which contained the vehicle. The patient and the technician measuring the patient's IOP was not aware of which bottle contained the drug and which contained the vehicle
# On days 1 through 5, IOP was measured at 8:00 A.M., 1 drop of 0.4% Tolbutamide suspended in buffered PBS (pH 6.7) was instilled to the right eye and IOP measured at the indicated times. A second drop was administered at 10:00 PM. All measurements and drug administrations were done in the hospital. The bottles were color-coded and the patient was not aware of which bottle contained the drug and which contained the vehicle. […]
# b. Effect of 0.4% tolbutamide on human subjects for an extended time. To determine whether longer-term treatment with tolbutamide lowered TOP without any significant side effects, […] patient was treated with one drop of 0.4% tolbutamide twice daily (FIGS. 5-7) as shown in the figures. Vials containing drug and vehicle were color-coded by the manufacturing facility; the patient, the nurse and the investigator were not aware which vial contained the drug and which vial contained the vehicle.
# On days 1 through 5, IOP was measured at 8:00 A.M., 1 drop of 0.4% Tolbutamide suspended in buffered PBS (pH 6.7) was instilled to the right eye and IOP measured at the indicated times. A second drop was administered at 10:00 PM. All measurements and drug administrations were done in the hospital, since the patient was admitted for an unrelated condition. […]
# [1] = Patient 2, 0.4% in PBS pH 6.7 twice daily, Day 1 6:30 PM
# [2] = Patient 2, 0.4% in PBS pH 6.7 twice daily, Day 2 4:00 PM
# [3] = Patient 2, 0.4% in PBS pH 6.7 twice daily, Day 2 8:00 AM
# [4] = Patient 2, 0.4% in PBS pH 6.7 twice daily, Day 2 8:00 PM
# [5] = Patient 2, 0.4% in PBS pH 6.7 twice daily, Day 3 4:00 PM
# [6] = Patient 2, 0.4% in PBS pH 6.7 twice daily, Day 3 8:00 AM
# [7] = Patient 2, 0.4% in PBS pH 6.7 twice daily, Day 3 8:00 PM
# [8] = Patient 2, 0.4% in PBS pH 6.7 twice daily, Day 4 4:00 PM
# [9] = Patient 2, 0.4% in PBS pH 6.7 twice daily, Day 4 8:00 AM
# [10] = Patient 2, 0.4% in PBS pH 6.7 twice daily, Day 4 8:00 PM
# [11] = Patient 2, 0.4% in PBS pH 6.7 twice daily, Day 5 2:00 PM
# [12] = Patient 2, 0.4% in PBS pH 6.7 twice daily, Day 5 8:00 AM
compound,measurement,setting,value
"CCCCNC(=O)NS(=O)(=O)c1ccc(C)cc1 [Tolbutamide, tolbutamide]",long-term effect on IOP,"Patient 1 (high IOP, no visual field loss), 0.4% suspended in PBS pH 6.7, right eye twice daily, days 1-6, first day IOP remained high",decreased significantly during the next 5 days
same,IOP OD (treated),"Patient 2 (refractory to Timolol), 0.4% in PBS pH 6.7 twice daily, Day 1 6:00 PM, Day 1 4:00 PM value 31",21 mm Hg
same,IOP OD (treated) % Change,"Patient 2, 0.4% in PBS pH 6.7 twice daily, Day 1 6:00 PM",−32%
same,IOP OD (treated),[1],18 mm Hg
same,IOP OD (treated) % Change,[1],−42%
same,IOP OD (treated),[2],27 mm Hg
same,IOP OD (treated) % Change,[2],−13%
same,IOP OD (treated),[3],16 mm Hg
same,IOP OD (treated) % Change,[3],−48%
same,IOP OD (treated),[4],28 mm Hg
same,IOP OD (treated) % Change,[4],−10%
same,IOP OD (treated),[5],22 mm Hg
same,IOP OD (treated) % Change,[5],−29%
same,IOP OD (treated),[6],20 mm Hg
same,IOP OD (treated) % Change,[6],−35%
same,IOP OD (treated),[7],21 mm Hg
same,IOP OD (treated) % Change,[7],−32%
same,IOP OD (treated),[8],22 mm Hg
same,IOP OD (treated) % Change,[8],−29%
same,IOP OD (treated),[9],18 mm Hg
same,IOP OD (treated) % Change,[9],−42%
same,IOP OD (treated),[10],24 mm Hg
same,IOP OD (treated) % Change,[10],−23%
same,IOP OD (treated),[11],23 mm Hg
same,IOP OD (treated) % Change,[11],−26%
same,IOP OD (treated),[12],17 mm Hg
same,IOP OD (treated) % Change,[12],−45%
same,effect on IOP,"glaucoma patients, 1 drop (250 μg) twice daily, 6 days of the study",decreased IOP
